biological target: Carbonic anhydrase 9 (Homo sapiens, UniProt Q16790)

`CC(=O)OC[C@H]1O[C@@H](NS(N)(=O)=O)C[C@@H](OC(C)=O)[C@H]1OC(C)=O` and `CC(=O)OC[C@H]1O[C@@H](NS(N)(=O)=O)C[C@@H](OC(C)=O)[C@@H]1OC(C)=O` are within 1.5-fold of each other in Ki: 0.016 µM for the first, 0.013 µM for the second.

`CC(=O)OC[C@H]1O[C@@H](NS(N)(=O)=O)[C@@H](OC(C)=O)[C@@H](OC(C)=O)[C@@H]1OC(C)=O` and `CC(=O)OC[C@H]1O[C@@H](NS(N)(=O)=O)[C@H](OC(C)=O)[C@@H](OC(C)=O)[C@H]1OC(C)=O` are within 1.5-fold of each other in Ki: 0.005 µM for the first, 0.0072 µM for the second.

First: C[C@H]1O[C@@H](NS(N)(=O)=O)[C@@H](O)[C@@H](O)[C@@H]1O
Second: CC(=O)OC[C@H]1O[C@@H](NS(N)(=O)=O)[C@H](OC(C)=O)[C@@H](OC(C)=O)[C@@H]1OC(C)=O
The Ki of the first is 410-fold higher: 3.14 µM for the first, 0.0077 µM for the second. The second binds more tightly here.
